Converted amounts (≈) assume the structure as drawn. Where a SMILES comes first, the peptide text is derived from it. [ ]: non-standard residue; d: D form. ξ: configuration not given here. ξTic = O=C(O)C1Cc2ccccc2CN1; ξOic = O=C(O)C1CC2CCCCC2N1
Tests used:
[1] = tested on: Salmonella typhimurium (ATCC 13311); conditions: ATCC 13311
[2] = tested on: Staphylococcus aureus Methicillin/Gentamicin/Tetracycline Resistant (ATCC 33592); conditions: for MIC Staphylococcus aureus ME/GM/TC resistant: Minimal Inhibitory Concentration, tested at 100-0.1 in 1% DMSO; for Minimum Inhibitory Concentration Staphylococcus aureus ME/GM/TC resistant: in vitro MIC, tested at 100, 30, 10, 3, 1, 0.3 and 0.1 μM in 1% DMSO
[3] = tested on: Mycobacterium ranae (ATCC 110); conditions: ATCC 110
[4] = tested on: Bacillus subtillis (ATCC 43223); conditions: ATCC 43223
in vitro [5] = conditions: human, microsomes, pH 7.4
in vitro [6] = conditions: dog, microsomes, pH 7.4
in vitro [7] = conditions: rat, microsomes, pH 7.4
in vitro [8] = conditions: mouse, microsomes, pH 7.4
in vitro [9] = conditions: monkey, microsomes, pH 7.4
[10] = Metabolic stability, dog liver microsomes; conditions: dog, microsomes, pH 7.4
[11] = Metabolic stability, rat liver microsomes; conditions: rat, microsomes, pH 7.4
[12] = Metabolic stability, human liver microsomes
[13] = Metabolic stability, mouse liver microsomes; conditions: mouse, microsomes, pH 7.4
[14] = Metabolic stability, monkey liver microsomes; conditions: monkey, microsomes, pH 7.4

SMILES | MIC Salmonella typhimurium [1] [µM] | MIC Staphylococcus aureus ME/GM/TC resistant [2] [µM] | Minimum Inhibitory Concentration Staphylococcus aureus ME/GM/TC resistant [2] [µM] | MIC Mycobacterium ranae [3] [µM] | Minimum Inhibitory Concentration Mycobacterium ranae [3] [µM] | MIC Bacillus Subtillis [4] [µM] | % hemolysis 100/25 μM (first value) (red blood cells) [%/] | % hemolysis 100/25 μM (second value) (red blood cells) [%] | remaining at 0.25 h, 1 μM (in vitro [5]) [%] | remaining at 0.5 h, 1 μM (in vitro [6]) [%] | remaining at 1 h, 1 μM (in vitro [6]) [%] | remaining at 1 h, 1 μM (in vitro [7]) [%] | remaining at 0.25 h, 1 μM (in vitro [8]) [%] | remaining at 0.5 h, 1 μM (in vitro [8]) [%] | remaining at 1 h, 1 μM (in vitro [8]) [%] | remaining at 0.25 h, 1 μM (in vitro [9]) [%] | remaining at 0.5 h, 1 μM (in vitro [9]) [%] | remaining at 1 h, 1 μM (in vitro [9]) [%] | remaining at 0.25 h, 1 μM (in vitro [7]) [%] | remaining at 0.5 h, 1 μM (in vitro [7]) [%] | also measured
CC(=O)NCC(=O)N[C@@H](Cc1ccccc1)C(=O)N[C@@H](Cc1ccccc1)C(=O)N1C(C(=O)NCC(=O)N[C@@H](CCCCN)C(=O)N[C@@H](Cc2ccccc2)C(=O)N2C(C(=O)NCC(=O)N[C@@H](Cc3ccccc3)C(=O)N[C@@H](Cc3ccccc3)C(=O)N3C(C(=O)NCC(=O)N[C@@H](CCCCN)C(=O)N[C@@H](Cc4ccccc4)C(=O)N[C@@H](CCCCN)C(=O)N[C@@H](CCCCN)C(=O)N[C@@H](CCCCN)C(=O)N[C@@H](CCCCN)C(N)=O)CC4CCCCC43)CC3CCCCC32)CC2CCCCC21 (stereo partly drawn) [FKAB-1Gh, Ac-GF-F-Oic-GK-F-Oic-GF-F-Oic-GK-F-KKKK-CONH2] (Ac-GFF[ξOic]GKF[ξOic]GFF[ξOic]GKFKKKK-NH2) | 10 (≈ 23.9 µg/mL) | 10.00 (≈ 23.9 µg/mL) | 10 | 10.00 (≈ 23.9 µg/mL) | 10 | 1.00 (≈ 2.39 µg/mL) | 27.30 | 8.9 | 92 | 103 | 60 | 0 | 36 | 71 | 112 |  |  |  |  |  | 
CC(=O)NCC(=O)N[C@@H](Cc1ccccc1)C(=O)N1Cc2ccccc2CC1C(=O)N1C(C(=O)NCC(=O)N[C@@H](CCCCN)C(=O)N2Cc3ccccc3CC2C(=O)N2C(C(=O)NCC(=O)N[C@@H](Cc3ccccc3)C(=O)N3Cc4ccccc4CC3C(=O)N3C(C(=O)NCC(=O)N[C@@H](CCCCN)C(=O)N4Cc5ccccc5CC4C(=O)N[C@@H](CCCCN)C(=O)N[C@@H](CCCCN)C(=O)N[C@@H](CCCCN)C(=O)N[C@@H](CCCCN)C(=O)N[C@@H](CCCCN)C(N)=O)CC4CCCCC43)CC3CCCCC32)CC2CCCCC21 (stereo partly drawn) [FKAB-1Gi, Ac-GF-Tic-Oic-GK-Tic-Oic-GF-Tic-Oic-GK-Tic-KKKKK-CONH2] (Ac-GF[ξTic][ξOic]GK[ξTic][ξOic]GF[ξTic][ξOic]GK[ξTic]KKKKK-NH2) | 10 (≈ 25.7 µg/mL) | 3.00 (≈ 7.71 µg/mL) | 3 | 3.00 (≈ 7.71 µg/mL) | 3 | 1.00 (≈ 2.57 µg/mL) | 24.9 | 18.9 | 86 | 63 | 79 | 87 | 77 | 26 | 15 | 72 | 75 | 99 | 76 | 86 | 
C[C@]12CC[C@H]3[C@@H](CCC4=CC(=O)CC[C@@]43C)[C@@H]1CC[C@@H]2O [Testosterone, testosterone, reference compound] |  |  |  |  |  |  |  |  |  |  |  |  |  |  |  |  |  |  |  |  | remaining at 0.25 h, 1 μM [10]: 85%; remaining at 0.5 h, 1 μM [10]: 62%; remaining at 1 h, 1 μM [10]: 33%; remaining at 0.25 h, 1 μM [11]: 0%; remaining at 0.5 h, 1 μM [11]: 0%; remaining at 0.25 h, 1 μM ([12]; human, microsomes, pH 7.4): 77%; remaining at 0.5 h, 1 μM ([12]; human, microsomes, pH 7.4): 53%; remaining at 1 h, 1 μM ([12]; human, microsomes, pH 7.4): 29%; remaining at 0.25 h, 1 μM [13]: 3%; remaining at 0.5 h, 1 μM [13]: 0%; remaining at 0.25 h, 1 μM [14]: 34%; remaining at 0.5 h, 1 μM [14]: 11%; remaining at 1 h, 1 μM [14]: 1%
CC(=O)CC(c1ccccc1)c1c(O)c2ccccc2oc1=O (stereo not drawn) [Warfarin, warfarin, reference compound] |  |  |  |  |  |  |  |  |  | 104 | 94 | 84 | 86 | 111 | 110 | 113 | 109 | 81 | 93 | 97 | remaining at 0.5 h, 1 μM (in vitro [5]): 97%; remaining at 1 h, 1 μM (in vitro [5]): 97%; remaining at 0.25 h, 1 μM (in vitro [6]): 109%; % remaining at time T, Human Liver ([12]; first human column (T = 15 min, head not given), 1 μM, 0.5 mg/mL microsomes): 100%

From patent US20120197004A1, “NOVEL ANTI-MICROBIAL PEPTIDOMIMETIC COMPOUNDS AND METHODS TO CALCULATE ANTI-MICROBIAL ACTIVITY” (priority 2006, published 2012)
